From paper PMC11583123, “Linker Chemistry and Connectivity Fine-Tune the Immune Response and Kinetic Solubility of Conjugated NOD2/TLR7 Agonists” (Bioconjugate Chemistry, 2024)
Entries after “also recorded” stand apart in the source; their conditions may differ.

Experiments:
[1] = Kinetic solubility in PBS (UHPLC, method of Hoelke et al.); type: physicochemical; conditions: PBS, 5% DMSO
Protocol: Second, the kinetic solubility of all individual building blocks (compounds 4-7) and conjugates was determined (results are listed in Table 1) in order to highlight how fine-tuning of linker traits can impact this physicochemical property. Kinetic solubility refers to the maximum solubility of a compound when it precipitates from a supersaturated solution, which is metastable and not in equilibrium; it was measured using the method described by Hoelke et al.[34] The length and composition of the linker as well as linkage site are important for activity and physicochemical characteristics of conjugates, which in turn affect their pharmacokinetic profiles. In general, the benzylic COOH was exploited exclusively as the linker attachment site in TLR7 agonist-featuring conjugates, while two potential linkage sites were considered in the structure of NOD2 agonist. […] In conjugates 22-24 and 29, the moieties were connected via the γ-COOH group of the NOD2 agonist. […] It has to be kept in mind that among the polyalkylethers, the structural requirements for aqueous solubility are poised toward the (−OCH2CH2−)n unit while (−OCH2CH2CH2−)n is not beneficial in this respect.[35] […]
suspension was filtered through a syringe filter (0.45 μm), diluted 2.25-fold with acetonitrile, and analyzed with UHPLC. The solubility was quantified with a five-point calibration curve from 500 to 0.8 μM generated by dilution of the original DMSO solution into a 1:1 mixture of acetonitrile and PBS. The content of DMSO in all solutions was fixed to 5% by adding the respective amounts of DMSO. The column used was Waters Acquity UPLC BEH C18 (1.7 μm, 2.1 × 50 mm). The eluent was a mixture of 0.1% TFA in water (A) and acetonitrile (B), with a gradient of (%B): 0−6 min, 5−95%; 6−8 min, 95%; 8−8.5 min, 95−5%. The column was thermostated at 40 °C.
3.1. Hek-Blue NOD2, TLR7 and TLR8 cells. […]
(BioTek Synergy microplate reader; Winooski, VT, USA). EC50 values were calculated using Prism

[2] = test system: human primary peripheral blood mononuclear cells (PBMCs); assay: Cytokine release from peripheral blood mononuclear cells (LEGENDplex); type: cell-based; conditions: 1 μM, 18 h, Figure S2
Protocol: Third, the immunostimulatory potential of synthesized conjugates was assessed in human primary peripheral blood mononuclear cells (PBMCs) (Figure 3, Supporting Table), which represent a diverse array of immune cell subpopulations, providing a more physiologically relevant system for studying concurrent NOD2/TLR7 or NOD2/TLR7/TLR8 activation. […]
software (version 9; GraphPad Software, CA, USA). The experiments were run in duplicates, and repeated as at least three independent biological replicates.
3.5 Cytokine Release from Peripheral Blood Mononuclear Cells […]
growth medium and treated with the compounds (1 μM), or the corresponding vehicle (0.1% DMSO).
Cell-free supernatants were collected after 18 h of incubation (37 °C, 5% CO2) and stored at −80 °C until tested. Cytokine concentrations were determined with the LEGENDplex™ HU Essential Immune Response Panel (Biolegend) on an Attune NxT flow cytometer (Thermo Fisher Scientific, Waltham, MA). […] The data were analyzed using the FlowJo (Tree Star, Inc., Ashland, OR) and Prism (GraphPad, San Diego, CA) software.
Statistical significance was determined with one-way ANOVA with subsequent Dunnett’s multiple […]
The data were analyzed using Prism software (version 9; GraphPad Software, CA, USA). Statistical significance was determined according to the specific procedures outlined in each experiment. […]

[3] = aqueous with cosolvent or surfactant or cyclodextrin, kinetic from dmso stock

CCOCc1nc2c(N)nc3ccccc3c2n1CC(C)(C)NC(=O)CCCCCNC(=O)CC[C@@H](NC(=O)[C@@H](NC(=O)CNC(=O)/C=C/c1ccc(O)c(OC)c1)C(C)C)C(=O)OCC [compound 33]
solubility kinetic [1]: 404.1 µM | solubility kinetic [1, 3]: 404 µM | Cytokine release versus combinations of 5 + 6 or 5 + 7 (in words) [2]: devoid of any potential synergistic effect; also recorded: not significantly increased

CCOCc1nc2c(NC(=O)CCCCCNC(=O)CC[C@@H](NC(=O)[C@@H](NC(=O)CNC(=O)/C=C/c3ccc(O)c(OC)c3)C(C)C)C(=O)OCC)nc3ccccc3c2n1CC(C)(C)O [compound 32]
solubility kinetic [1]: 437.3 µM | solubility kinetic [1, 3]: 437 µM | Cytokine release versus combinations of 5 + 6 or 5 + 7 (in words) [2]: devoid of any potential synergistic effect; also recorded: not significantly increased
